Measured values as given in PubChem BioAssay (NCI).
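Five concentrations, 48 hours, 96-well plates. Definition used: TGI = concentration required for complete inhibition of growth.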

How the values were obtained:
Test in all cases: growth of human tumour cells (NCI), 48 h
RPMI-8226 leukemia = tested on: RPMI-8226 leukemia
A498 renal = tested on: A498 renal
BT-549 breast = tested on: BT-549 breast
MCF7 breast = tested on: MCF7 breast
NCI/ADR-RES ovarian = tested on: NCI/ADR-RES ovarian
HOP-92 NSCLC = tested on: HOP-92 NSCLC
PC-3 prostate = tested on: PC-3 prostate
SN12C renal = tested on: SN12C renal
MDA-N = tested on: MDA-N
MALME-3M melanoma = tested on: MALME-3M melanoma
OVCAR-5 ovarian = tested on: OVCAR-5 ovarian
SK-OV-3 ovarian = tested on: SK-OV-3 ovarian
ACHN renal = tested on: ACHN renal
UO-31 renal = tested on: UO-31 renal
NCI-H23 lung = tested on: NCI-H23 lung
NCI-H522 lung = tested on: NCI-H522 lung
OVCAR-8 ovarian = tested on: OVCAR-8 ovarian
KM12 colon = tested on: KM12 colon
HS 578T breast = tested on: HS 578T breast
SK-MEL-5 melanoma = tested on: SK-MEL-5 melanoma
SF-268 CNS = tested on: SF-268 CNS
HOP-62 NSCLC = tested on: HOP-62 NSCLC
TK-10 renal = tested on: TK-10 renal
MOLT-4 leukemia = tested on: MOLT-4 leukemia
786-0 renal = tested on: 786-0 renal
MDA-MB-231 breast = tested on: MDA-MB-231 breast
A549 NSCLC = tested on: A549 NSCLC
UACC-62 melanoma = tested on: UACC-62 melanoma
SF-295 CNS = tested on: SF-295 CNS
HCT-15 colon = tested on: HCT-15 colon
SK-MEL-28 melanoma = tested on: SK-MEL-28 melanoma
RXF 393 renal = tested on: RXF 393 renal
EKVX NSCLC = tested on: EKVX NSCLC
SNB-19 CNS = tested on: SNB-19 CNS
OVCAR-3 ovarian = tested on: OVCAR-3 ovarian
HCT-116 colon = tested on: HCT-116 colon
UACC-257 melanoma = tested on: UACC-257 melanoma
SR leukemia = tested on: SR leukemia
HT29 colon = tested on: HT29 colon
NCI-H226 lung = tested on: NCI-H226 lung
COLO 205 colon = tested on: COLO 205 colon
U251 CNS = tested on: U251 CNS
CAKI-1 renal = tested on: CAKI-1 renal
M14 melanoma = tested on: M14 melanoma
LOX IMVI melanoma = tested on: LOX IMVI melanoma
T-47D breast = tested on: T-47D breast
SK-MEL-2 melanoma = tested on: SK-MEL-2 melanoma
SW-620 colon = tested on: SW-620 colon
K-562 leukemia = tested on: K-562 leukemia
OVCAR-4 ovarian = tested on: OVCAR-4 ovarian
HL-60(TB) leukemia = tested on: HL-60(TB) leukemia
IGROV1 ovarian = tested on: IGROV1 ovarian
DU-145 prostate = tested on: DU-145 prostate
MDA-MB-435 = tested on: MDA-MB-435
SF-539 CNS = tested on: SF-539 CNS
NCI-H460 lung = tested on: NCI-H460 lung
HCC-2998 colon = tested on: HCC-2998 colon
CCRF-CEM leukemia = tested on: CCRF-CEM leukemia
SNB-75 CNS = tested on: SNB-75 CNS

CC(C)(C)OC(=O)CCC1NC(=O)[C@@H]2Cc3c([nH]c4ccccc34)C(C3CCCCC3)N2C1=O (some centres not stated)
TGI (RPMI-8226 leukemia): 56.5 µM | TGI (A498 renal): > 100 µM | TGI (BT-549 breast): > 100 µM | TGI (MCF7 breast): > 100 µM | TGI (NCI/ADR-RES ovarian): > 100 µM | TGI (HOP-92 NSCLC): 78.3 µM | TGI (PC-3 prostate): 74.2 µM | TGI (SN12C renal): 65.6 µM | TGI (MDA-N): > 100 µM | TGI (MALME-3M melanoma): 80.3 µM | TGI (OVCAR-5 ovarian): > 100 µM | TGI (SK-OV-3 ovarian): > 100 µM | TGI (ACHN renal): > 100 µM | TGI (UO-31 renal): > 100 µM | TGI (NCI-H23 lung): > 100 µM | TGI (NCI-H522 lung): > 100 µM | TGI (OVCAR-8 ovarian): > 100 µM | TGI (KM12 colon): 78 µM | TGI (HS 578T breast): > 100 µM | TGI (SK-MEL-5 melanoma): > 100 µM | TGI (SF-268 CNS): > 100 µM | TGI (HOP-62 NSCLC): > 100 µM | TGI (TK-10 renal): > 100 µM | TGI (MOLT-4 leukemia): 61.3 µM | TGI (786-0 renal): > 100 µM | TGI (MDA-MB-231 breast): 76.6 µM | TGI (A549 NSCLC): > 100 µM | TGI (UACC-62 melanoma): > 100 µM | TGI (SF-295 CNS): 66.2 µM | TGI (HCT-15 colon): > 100 µM | TGI (SK-MEL-28 melanoma): > 100 µM | TGI (RXF 393 renal): > 100 µM | TGI (EKVX NSCLC): > 100 µM | TGI (SNB-19 CNS): > 100 µM | TGI (OVCAR-3 ovarian): 99.7 µM | TGI (HCT-116 colon): > 100 µM | TGI (UACC-257 melanoma): > 100 µM | TGI (SR leukemia): 61.1 µM | TGI (HT29 colon): 40.2 µM | TGI (NCI-H226 lung): > 100 µM | TGI (COLO 205 colon): 38.9 µM | TGI (U251 CNS): > 100 µM | TGI (CAKI-1 renal): > 100 µM | TGI (M14 melanoma): > 100 µM | TGI (LOX IMVI melanoma): > 100 µM | TGI (T-47D breast): > 100 µM | TGI (SK-MEL-2 melanoma): 65.5 µM | TGI (SW-620 colon): > 100 µM | TGI (K-562 leukemia): > 100 µM | TGI (OVCAR-4 ovarian): > 100 µM | TGI (HL-60(TB) leukemia): 41.9 µM | TGI (IGROV1 ovarian): > 100 µM | TGI (DU-145 prostate): > 100 µM | TGI (MDA-MB-435): > 100 µM

COC(O)C(=O)c1c2c(cc3c1CCC3)CCCC2 (configuration not stated)
TGI (RPMI-8226 leukemia): 5.63 µM | TGI (A498 renal): 18 µM | TGI (BT-549 breast): 6.41 µM | TGI (MCF7 breast): 18 µM | TGI (NCI/ADR-RES ovarian): 61.5 µM | TGI (PC-3 prostate): 11 µM | TGI (SN12C renal): 19.5 µM | TGI (MDA-N): 30.4 µM | TGI (MALME-3M melanoma): 27.8 µM | TGI (SF-539 CNS): 16.6 µM | TGI (OVCAR-5 ovarian): 36.7 µM | TGI (SK-OV-3 ovarian): 24.6 µM | TGI (ACHN renal): 21 µM | TGI (UO-31 renal): 31.5 µM | TGI (NCI-H23 lung): 31.7 µM | TGI (NCI-H522 lung): 13.2 µM | TGI (OVCAR-8 ovarian): 25.4 µM | TGI (KM12 colon): 34.1 µM | TGI (HS 578T breast): 36.2 µM | TGI (SK-MEL-5 melanoma): 9.47 µM | TGI (NCI-H460 lung): 19.7 µM | TGI (HCC-2998 colon): 4.28 µM | TGI (SF-268 CNS): 45.5 µM | TGI (HOP-62 NSCLC): 33.3 µM | TGI (TK-10 renal): 29.9 µM | TGI (CCRF-CEM leukemia): 6.69 µM | TGI (MOLT-4 leukemia): 14.2 µM | TGI (786-0 renal): 27.8 µM | TGI (MDA-MB-231 breast): 27.6 µM | TGI (A549 NSCLC): 40.9 µM | TGI (UACC-62 melanoma): 12.3 µM | TGI (SF-295 CNS): 26 µM | TGI (HCT-15 colon): 13.8 µM | TGI (SK-MEL-28 melanoma): 26.4 µM | TGI (EKVX NSCLC): 31.1 µM | TGI (SNB-19 CNS): 32.8 µM | TGI (OVCAR-3 ovarian): 14.5 µM | TGI (HCT-116 colon): 4.6 µM | TGI (UACC-257 melanoma): 25.9 µM | TGI (SR leukemia): 13.9 µM | TGI (HT29 colon): 12.9 µM | TGI (NCI-H226 lung): 38 µM | TGI (COLO 205 colon): 19.3 µM | TGI (U251 CNS): 27.8 µM | TGI (CAKI-1 renal): 28.3 µM | TGI (M14 melanoma): 24.9 µM | TGI (LOX IMVI melanoma): 4.95 µM | TGI (T-47D breast): 44.2 µM | TGI (SK-MEL-2 melanoma): 30.2 µM | TGI (SW-620 colon): 12.3 µM | TGI (K-562 leukemia): 12.7 µM | TGI (SNB-75 CNS): 26 µM | TGI (OVCAR-4 ovarian): 17.5 µM | TGI (HL-60(TB) leukemia): 4.31 µM | TGI (IGROV1 ovarian): 14 µM | TGI (DU-145 prostate): 30.5 µM | TGI (MDA-MB-435): 36.7 µM

CCN1C(Cl)=NS(=O)(=O)c2ccccc21
TGI (A498 renal): 44.6 µM | TGI (BT-549 breast): 44 µM | TGI (MCF7 breast): > 100 µM | TGI (NCI/ADR-RES ovarian): 85.2 µM | TGI (HOP-92 NSCLC): 42.1 µM | TGI (PC-3 prostate): > 100 µM | TGI (SN12C renal): 37.9 µM | TGI (MDA-N): > 100 µM | TGI (SF-539 CNS): 35.9 µM | TGI (OVCAR-5 ovarian): 76 µM | TGI (SK-OV-3 ovarian): > 100 µM | TGI (ACHN renal): 34.1 µM | TGI (UO-31 renal): 32.1 µM | TGI (NCI-H23 lung): 52.5 µM | TGI (NCI-H522 lung): 24.6 µM | TGI (OVCAR-8 ovarian): > 100 µM | TGI (KM12 colon): > 100 µM | TGI (HS 578T breast): > 100 µM | TGI (SK-MEL-5 melanoma): 33.1 µM | TGI (NCI-H460 lung): 64.7 µM | TGI (HCC-2998 colon): 45.7 µM | TGI (SF-268 CNS): > 100 µM | TGI (HOP-62 NSCLC): 70.1 µM | TGI (TK-10 renal): 37 µM | TGI (CCRF-CEM leukemia): 81 µM | TGI (MOLT-4 leukemia): > 100 µM | TGI (786-0 renal): 64.6 µM | TGI (MDA-MB-231 breast): 65.1 µM | TGI (A549 NSCLC): > 100 µM | TGI (UACC-62 melanoma): 25.6 µM | TGI (SF-295 CNS): > 100 µM | TGI (HCT-15 colon): 35.2 µM | TGI (SK-MEL-28 melanoma): > 100 µM | TGI (RXF 393 renal): 32.2 µM | TGI (EKVX NSCLC): 53.7 µM | TGI (SNB-19 CNS): > 100 µM | TGI (OVCAR-3 ovarian): 34.8 µM | TGI (HCT-116 colon): 74 µM | TGI (UACC-257 melanoma): 80.8 µM | TGI (SR leukemia): > 100 µM | TGI (HT29 colon): > 100 µM | TGI (NCI-H226 lung): 55.7 µM | TGI (COLO 205 colon): 32.5 µM | TGI (U251 CNS): > 100 µM | TGI (CAKI-1 renal): 4.31 µM | TGI (M14 melanoma): 32.8 µM | TGI (LOX IMVI melanoma): 36.7 µM | TGI (T-47D breast): 78.6 µM | TGI (SK-MEL-2 melanoma): > 100 µM | TGI (SW-620 colon): > 100 µM | TGI (K-562 leukemia): 39.3 µM | TGI (OVCAR-4 ovarian): 47.8 µM | TGI (HL-60(TB) leukemia): 87.2 µM | TGI (IGROV1 ovarian): > 100 µM | TGI (DU-145 prostate): > 100 µM | TGI (MDA-MB-435): > 100 µM
